Laboratory results reported in ChEMBL document CHEMBL1201862, “PubChem BioAssay data set” (2004).
The source made the active and inactive calls.

Columns and labels:
[1] = A cytotoxicity screen of small molecule inhibitors of the PhoP region in Salmonella typhi identified in the primary screen. [Related pubchem assays: 1850, 1864, 1985 ]; assay type: functional
[2] = molecular target: T1, Calpain-2 catalytic subunit (Sus scrofa, UniProt P43367); assay: pig calpain II inhibitor potency, dose response, biochemical, fluorogenic peptide substrate (AID 1420); assay type: functional
T1 sequence (P43367 whole entry): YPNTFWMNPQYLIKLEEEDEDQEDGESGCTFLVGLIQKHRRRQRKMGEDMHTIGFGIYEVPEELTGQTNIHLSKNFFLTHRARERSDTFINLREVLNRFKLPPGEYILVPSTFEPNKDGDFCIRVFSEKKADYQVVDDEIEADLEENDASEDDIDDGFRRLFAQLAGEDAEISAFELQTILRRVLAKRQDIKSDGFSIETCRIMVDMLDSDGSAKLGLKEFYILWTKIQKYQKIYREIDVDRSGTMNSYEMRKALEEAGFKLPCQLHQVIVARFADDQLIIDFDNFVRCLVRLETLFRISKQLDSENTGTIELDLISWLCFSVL

[3] = inhibitors of intracellular T. cruzi replication, confirmation, NIH3T3 host cells, beta-gal luminescence (AID 2044); assay type: functional, cell-based;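 also: intracellular parasites grown in NIH/3T3 mouse fibroblasts as host cells; luminescent beta-galactosidase reporter signal from transgenic T. cruzi replicating inside host cells; inhibitors lower the luminescence signal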
[4] = cytotoxicity toward NIH3T3 fibroblasts, dose response, counter-screen, cell-based, ATP luminescence, mouse fibroblasts (AID 2010); assay type: functional;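 also: cells exposed to compound for about 90 hours before reading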
[5] = HepG2 cell cytotoxicity, dose response, cytotoxicity control, plate reader, dry powder samples (AID 1159569); assay type: functional, cell-based;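 also: inhibitor potency with signal falling toward the positive control level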
[6] = P. falciparum Dd2 growth inhibitors, dose response, SYBR Green, dry powder samples (AID 1159566); assay type: functional, cell-based;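 also: potency for growth inhibition with lower SYBR green DNA signal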
[7] = P. falciparum ATP4 D1247Y mutant growth inhibitors, dose response, NITD609-resistant line, SYBR Green, dry powder (AID 1159571); assay type: functional, cell-based;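 also: parasites synchronized at ring stage by sorbitol before testing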
[8] = P. falciparum 3D7-ScDHODH growth inhibitors, dose response, SYBR Green, dry powder samples (AID 1159570); assay type: functional, cell-based;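 also: parasite growth measured after 72 hours of compound exposure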
[9] = P. falciparum Dd2 growth inhibitors, dose response, SYBR Green, cherry-picked samples (AID 1159567); assay type: functional, cell-based
[10] = molecular target: T2, Short transient receptor potential channel 4 (Mus musculus, UniProt Q9QUQ5); assay: mouse TRPC4 channel activators, dose response, cell-based, HEK293 TRPC4/mu-opioid, Fluo-4 calcium (AID 434937); assay type: functional
T2 sequence (Q9QUQ5 whole entry): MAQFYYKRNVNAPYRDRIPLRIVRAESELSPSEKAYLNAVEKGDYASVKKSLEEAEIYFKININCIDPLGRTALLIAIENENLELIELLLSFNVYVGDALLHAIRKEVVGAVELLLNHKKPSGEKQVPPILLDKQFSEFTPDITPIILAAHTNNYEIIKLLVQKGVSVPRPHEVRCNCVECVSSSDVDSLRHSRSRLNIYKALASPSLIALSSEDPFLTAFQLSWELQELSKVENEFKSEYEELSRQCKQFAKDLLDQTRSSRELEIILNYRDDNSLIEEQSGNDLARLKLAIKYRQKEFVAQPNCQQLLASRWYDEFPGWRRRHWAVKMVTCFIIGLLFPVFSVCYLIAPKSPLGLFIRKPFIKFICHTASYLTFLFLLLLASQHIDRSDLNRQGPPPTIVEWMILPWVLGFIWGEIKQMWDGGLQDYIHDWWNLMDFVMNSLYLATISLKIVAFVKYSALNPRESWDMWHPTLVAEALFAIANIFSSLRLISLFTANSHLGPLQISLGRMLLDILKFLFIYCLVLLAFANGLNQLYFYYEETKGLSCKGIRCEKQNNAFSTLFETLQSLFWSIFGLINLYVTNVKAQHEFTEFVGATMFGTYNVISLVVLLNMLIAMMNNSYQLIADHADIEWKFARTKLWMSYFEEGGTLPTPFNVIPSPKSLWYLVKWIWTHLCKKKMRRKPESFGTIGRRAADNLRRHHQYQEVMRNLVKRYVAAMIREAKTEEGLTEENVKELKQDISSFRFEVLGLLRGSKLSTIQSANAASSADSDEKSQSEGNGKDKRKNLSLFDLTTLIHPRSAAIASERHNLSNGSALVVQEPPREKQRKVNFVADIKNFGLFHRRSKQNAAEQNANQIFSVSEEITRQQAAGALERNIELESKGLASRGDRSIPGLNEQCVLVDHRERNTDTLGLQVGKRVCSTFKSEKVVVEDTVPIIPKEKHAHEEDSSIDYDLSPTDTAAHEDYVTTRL

[11] = growth suppression of PTEN-null colon cells, dose response, cell-based, HCT116 PTEN knockout (AID 1047); assay type: functional;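 also: HCT116 colon tumor cells with PTEN knocked out; cells exposed to compound for 60 hours before readout; potency for loss of cell viability measured by luminescence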
[12] = growth suppression of beta-catenin-knockout colon cells, dose response, cell-based, HCT116, human colon tumor (AID 1045); assay type: functional;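 also: HCT116 colon tumor cells with beta catenin knocked out; cells exposed to compound for 60 hours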
Vero = assay: cells; assay type: functional; settings: Chlorocebus sabaeus

Clc1ccc(C(c2ccccc2)N2CCNCC2)cc1 (stereo not given) [NORCHLORCYCLIZINE]
EC50 [1]: > 50000 nM (active)

CC(=O)Nc1ccc(S(=O)(=O)NCC2CCC(C(=O)NCCC3=CCCCC3)CC2)cc1 (stereo not given)
IC50 [2]: 9120 nM (not active)

CCn1nc(C)c(CN2CCCC(C(=O)c3cccc(OC(C)C)c3)C2)c1C (stereo not given)
EC50 [3]: < 100 nM (active) | EC50 [4]: > 60000 nM (not active) | EC50 (cells): 210 nM (active)

C=CCSc1nc2sc3c(c2c(=O)n1-c1ccccc1)CCN(C)C3
EC50 [3]: < 100 nM (active) | EC50 [4]: > 60000 nM (not active) | EC50 (cells): 474 nM (active)

C[C@H]1CN([C@@H](C)CO)C(=O)c2c(c3ccccc3n2C)-c2ccccc2CO[C@H]1CN(C)C(=O)Nc1ccc(-c2ccccc2)cc1
AC50 [5]: > 100000 nM (inactive) | AC50 [6]: 656 nM (active) | AC50 [7]: 634 nM (active) | AC50 [8]: 2710 nM (active) | AC50 [9]: 2080 nM (active)

CC(C)Cc1ccc(CN2CCCC(NC(=O)CCn3cnnn3)C2)cc1 (stereo not given)
EC50 [10]: 4220 nM (active) | EC50 [3]: < 100 nM (active) | EC50 [4]: > 30000 nM (not active) | EC50 (cells): 46 nM (active)

O=C(/C=C/c1ccccc1)Nc1nnc(SCC(=O)c2ccc3ccccc3c2)s1
EC50 [11]: 9170 nM (active) | EC50 [12]: 9720 nM (active)

COc1ccccc1CN1C[C@@H]2N[C@H](C1)[C@@H]2c1ccc(-c2ccncc2)cc1
AC50 [5]: 24600 nM (active) | AC50 [6]: 2020 nM (active) | AC50 [7]: 3070 nM (active) | AC50 [8]: 3590 nM (active) | AC50 [9]: 2480 nM (active)

CN(C)CCCN(C(=O)c1nc2ccccc2s1)c1nc2ccc(F)cc2s1
EC50 [3]: < 100 nM (active) | EC50 [4]: > 60000 nM (not active) | CC50 (Vero): > 25000 nM (active) | EC50 (cells): < 4 nM (active)

O=C(CCCN1C(=O)c2cccc3cccc(c23)C1=O)N1CCN(c2ccccn2)CC1
IC50 [2]: 2130 nM (not active)

Cc1ccccc1-n1nnnc1SCc1ncc(-c2ccccc2)o1
IC50 [2]: 5050 nM (not active)
